Reference: patent US9663439B2, “Aildenafil citrate crystal form O, preparation method and use thereof” (priority 2010, dated 2017)
Counter-ions that a name gives are not always drawn.

Tests used:
castrated mice = assay: Determination for sexual function of castrated mice; type: in vivo, Kunming strain mouse; conditions: 15 mg/kg^−1, ig, 60 min after feeding the drug
Excerpt: Pharmacodynamic study: determination for sexual function of castrated mice 60 Kunming strain mouse (feeding 60 mouse with 18 g to 22 g weight in the same period) are randomly divided into 6 groups, each 10 mouse per group, wherein, 5 groups of mouse are implemented with bilateral orchidectomy under ether anesthesia state to have castration treatment, and the rest one group of mouse are only implemented with surgical separation, without removing the testicles, which can be taken as a sham operation control group. Each group of mouse are fed in cage, and are tested after 3 d. The sham operation control group and the model control group are fed with 0.5% CMC, […] crystal form O, the positive control group is fed with 6 mg·kg^−1 of Sildenafil; all are ig delivery modes, and the dose volumes are all 10 ml·kg^−1. Putting the single male mice in the cage 60 min after feeding the drug, and adding one female mice in each cage, recording the time that the male mice firstly catches the female mice since the female mice is put in the cage (namely, the capture incubation period), and recording the back-climbing times of the male mice within 30 min.

[1] = Influencing factor test (high temperature, high humidity, illumination); type: physicochemical
[2] = High-temperature test (first line; 60+/−2° C.), 0 month
[3] = High-temperature test (first line; 60+/−2° C.), 0.5 month
[4] = High-temperature test (first line; 60+/−2° C.), 1 month
[5] = High-temperature test (second line so named), 0 month
[6] = High-temperature test (second line so named), 0.5 month
[7] = High-temperature test (second line so named), 1 month
[8] = Illumination test (4500 lx+/−500 lx), 0 month
[9] = Illumination test (4500 lx+/−500 lx), 0.5 month
[10] = Illumination test (4500 lx+/−500 lx), 1 month
[11] = high light (4500 lx+/−500 lx), high temperature (60+/−2° C.), high humidity (RH 92.5%), 0 to 1 month

## CCCc1nn(C)c2c(=O)[nH]c(-c3cc(S(=O)(=O)N4C[C@@H](C)N[C@@H](C)C4)ccc3OCC)nc12 [Aildenafil citrate crystal form O]
Castrated mice
  capture incubation period shortened: 201%
Castrated mice; within 30 min
  capture times increased: 4.4 times
[1]; [2]
  Appearance: White
  Contents (HPLC area normalization method): 99.96%
  Related articles: 0.04%
[1]; [3]
  Appearance: White
  Contents (HPLC area normalization method): 99.96%
  Infrared absorption spectrum: Unchanged
  PXRD: Unchanged
  Related articles: 0.04%
[1]; [4]
  Appearance: White
  Contents (HPLC area normalization method): 99.95%
  Infrared absorption spectrum: Unchanged
  PXRD: Unchanged
  Related articles: 0.04%
[1]; [5]
  Appearance: White
  Contents (HPLC area normalization method): 99.96%
  Related articles: 0.04%
[1]; [6]
  Appearance: White
  Contents (HPLC area normalization method): 99.95%
  Infrared absorption spectrum: Unchanged
  PXRD: Unchanged
  Related articles: 0.04%
[1]; [7]
  Appearance: White
  Contents (HPLC area normalization method): 99.96%
  Infrared absorption spectrum: Unchanged
  PXRD: Unchanged
  Related articles: 0.05%
[1]; [8]
  Appearance: White
  Contents (HPLC area normalization method): 99.96%
  Related articles: 0.04%
[1]; [9]
  Appearance: White
  Contents (HPLC area normalization method): 99.96%
  Infrared absorption spectrum: Unchanged
  PXRD: Unchanged
  Related articles: 0.04%
[1]; [10]
  Appearance: White
  Contents (HPLC area normalization method): 99.96%
  Infrared absorption spectrum: Unchanged
  PXRD: Unchanged
  Related articles: 0.04%
[1]; [11]
  chemical stability (related articles and contents): excellent chemical stability
  crystal form stability (appearance, PXRD, infrared absorption spectrum): stable
